Assay results as given in US20040014772A1, “Compositions and methods for treating glomerular disorders” (priority 2000, published 2004).
Entries after “also recorded” stand apart in the source; their conditions may differ.

Key:
[1] = tested on: glomerular epithelial cells GEC; assay: PAN induced hydroxyl radical formation in GEC (deoxyribose degradation); type: cell-based, rat; settings: PAN 1.5 mM 1 h; preincubation CM 2 mM, PB 25 μM, RN 1 mM, PIP 0.2 mM, pyruvate 10 mM
Protocol: 2-deoxy-D-ribose in a final concentration of 3 mM was added to the medium just prior to the incubation. At the end of the incubation, the incubation medium was collected for the measurement of hydroxyl radical formation by deoxyribose degradation method as in Baliga et al (Kidney Intl. 1996, 50:1118-1124.).
Confluent GEC monolayer was washed twice with HBSS and then incubated with 1.5 mM PAN in HBSS for a period of time before substantial cell killing occurs (1 h) at 37° C. 2-deoxy-D-ribose in a final concentration of 3 mM was added to the medium just prior to the incubation. At the end of the incubation, the incubation medium was collected for the measurement of hydroxyl radical formation by deoxyribose degradation method described in Baliga et al, 1996, Kidney Int. 50:1118-1124. To determine the effect of CYP inhibitors on the hydroxyl radical formation, GEC monolayers were preincubated with CM, RN or PB as mentioned above.

[2] = tested on: glomeruli of PAN-treated rats; assay: Bleomycin detectable iron assay in glomeruli of PAN-treated rats; type: in vivo, rat; settings: for bleomycin detectable iron content in the glomeruli: PAN-treated rats, CM 120 mg/kg, PB 400 mg/kg or PIP 85 mg/kg ip, 6 hours, day 4, day 7
Protocol: Glomeruli were isolated by a combination of sieving and differential centrifugation as described in Ueda et al, 19996, Kidney Intl. 49:370-373, and Baliga et al, 1992, Am. J. Physiol. 263:214-221. Glomeruli isolated from two rats were pooled together (as N of 1) for the isolation of microsomes. Iron capable of catalyzing free radical reactions was measured by bleomycin detectable iron assay as described by Gutteridge et al, 1981, Biochem. J. 199:263-265, Gutteridge et al, 1982, Biochem. J. 206:605-609, Baliga et al, 1993, Bioche.

[3] = tested on: PAN-induced nephrotic syndrome; assay: PAN-induced nephrotic syndrome: proteinuria and serum albumin; type: in vivo, rat; settings: PAN-treated rats; for proteinuria: daily urine protein to day 7; for serum albumin: day 7
Protocol: Male Sprague-Dawley rats weighing 200-250 g were injected either saline or a single intravenous injection of PAN (Sigma, St. Louis) in a dose of 7.5 mg/100g BW (day 0) as described in Ueda et al, 19996, Kidney Intl. 49:370-373. Animals were housed in separate metabolic cages and allowed free access to rat chow (Purina). Daily urine protein excretion was determined and animals were sacrificed on day 7. Blood was obtained for the measurement of serum albumin and the evaluation of renal function as measured by blood urea nitrogen (BUN) and plasma creatinine. Cell fraction of the glomeruli was prepared for bleomycin detectable iron assay. The microsome fraction was utilized for the measurement of CYP content.
Two different general CYP inhibitors were used, cimetidine (CM) and piperonyl butoxide (PB). Cimetidine has imidazole and cyano groups that inhibit CYP by interacting with the heme moiety. […] To determine the effect of the CYP inhibitors in PAN- induced nephrotic syndrome, CM (120 mg/kg BW) was administered intraperitoneal 1 h prior to PAN injection and then twice a day. Piperonyl butoxide (PB) which yields a metabolite that binds to the heme moiety of CYP, was given intraperitoneal (400 mg/kg BW) 4h before PAN injection and then every other day.
PIP is believed to inhibit CYP2B1 by forming an inhibitory complex therewith. PIP was administered at a dose of 85 mg/kg of body weight (BW) by an intraperitoneal injection 16 hours prior to PAN injection and then once a day.

heme oxidase (HO-1) = assay: HO-1 induction in kidney of PAN-treated rats (immunohistochemistry, western blot, RT-PCR); type: in vivo, rat
Excerpt: The microsome fraction obtained was subjected to SDS-page electrophoresis in 1 mm slab gels. The separated forms were transferred from gel to a nitrocellulose sheet using a Mini Trans-blot electroblotting unit. The primary antibodies were monoclonal anti-HO-1 (OSA-111, StressGen, Victoria, BC, Canada) and monoclonal anti-CYP2B1 (PM25, Oxford Biomedical Research, Oxford, Mich., USA). Subsequent to primary and secondary antibody (peroxidase-labeled) treatment, the blots were visualized by enhanced chemiluminescence method.
Kidney cortical sections were fixed in 10% buffered formalin for 6 hours and embedded in paraffin. After deparaffinization and antigen retrieval, the sections were immunolabeled and visualized according to an avidin-biotin complex (ABC) method. The primary antibody for detection of ferritin was polyclonal anti-Ferritin (L subunit) antibody (605022; Boehringer Mannheim Corp., Indianapolis, Ind., USA).
RNA was isolated from the kidney cortex using TRIzol Reagant (Gibco, BRL, Gaithersburg, Md., USA). Revers transcription of […] of total RNA was carried out using Moloney murine leukemia virus reverse transcriptase (Gibco, BRL). The resulting first-strand cDNA preparations were used as templates for PCR. HO-1 primer described by Paschen et al (Neurosci Lett, 1994, 180:5-8.) were purchased from Gibco, BRL. The sense primer was: %′-[…]-3′, and the antisense 5′-[…]-3′. […]

Compound	hydroxyl radical formation in GEC [1]	bleomycin detectable iron content in the glomeruli [2]	proteinuria [3]	proteinuria ([3]; listed as C<)	serum albumin [3]	HO-1 induction in the glomeruli and tubules (heme oxidase (HO-1); PAN-treated rats)	HO-1 mRNA expression in the kidney (heme oxidase (HO-1); RT-PCR vs GAPDH, one hour to day 4 after PAN)	catalytic iron content in the glomeruli (bleomycin detectable iron assay) ([2]; rats 7 days after PAN 7.5 mg/100 g BW iv, control value 39, N=3, P<0.01) [nmol/mg protein]
CN/C(=N/CCSCc1nc[nH]c1C)NC#N [CM, cimetidine]	markedly reduce; also recorded: significantly reduced	significantly prevent the increase; also recorded: significantly prevented this increase	substantial protection	significant protection	prevented			
CN(C)c1ncnc2c1ncn2[C@@H]1O[C@H](CO)[C@@H](N)[C@H]1O [PAN, puromycin aminonucleoside]	significant increase; also recorded: significant production	markedly elevated	significant proteinuria on the fourth day; also recorded: nephrotic range proteinuria		markedly decreased; also recorded: significant decrease	marked induction	significantly increase	160
